Laboratory results taken from patent US11465998B2, “Therapeutic compounds and methods of use thereof” (Regents of the University of Minnesota, priority 2019, dated 2022).
Entries after “also recorded” stand apart in the source; their conditions may differ.

System: human peripheral blood mononuclear cells (PBMCs)
Assay: Multiplexed immunoassays for human cytokines in PBMCs
Format: cell-based
Protocol: Example 5: High-throughput screens in porcine blood: Curated compound collections were obtained from the Institute for Therapeutics Discovery & Development at the University of Minnesota. Compound transfers from source (80 nL of 10 mM stocks) to assay plates were performed using an Echo 550 acoustic liquid handler (Labcyte, Sunnyvale, Calif.). For most libraries, a target final concentration of 10 μM of compound (in a final volume of 80 μL for the assay described below) was achieved. Compound plates were hermetically sealed and stored at −80° C. until used. Fresh, heparin-anticoagulated porcine blood from healthy animals were obtained under USDA supervision from Midwest Research Swine, LLC (Glencoe, Minn.). 80 μL of hematocrit-enriched porcine blood (low-speed centrifugation, followed by resuspension in DMEM supplemented with 10% fetal bovine serum) was added to compound plates and incubated for 15 h. The following day, the plates were briefly centrifuged (100 g, 10 min), and supernatants were transferred using an automated ViaFlow 384 transfer device (Integra Biosciences Corp., Hudson, N.H.) to assay plates containing of 10^6 cells/mL of each of the following NF-κB/secreted alkaline phosphatase reporter cells suspended in HEK-Blue Detection Media: human IFN-α/β, human IFN-γ, human TNF-α/IL-1β (InvivoGen, San Diego, Calif.). NF-κB translocation was assayed spectrophotometrically using an alkaline phosphatase-specific chromogen (present in HEK-detection medium as supplied by InvivoGen) at 620 nm using a SpectraMax M4 multimode microplate reader (Molecular Devices, Sunnyvale, Calif.). Z′ factors were computed for each TLR/NOD-specific signals. Hits were defined as signals >4σ (in-plate standard deviations for test compounds above negative control means), were deconvoluted in full dose-response assays in human TLR-2/-3/-4/-5/-7/-8/-9 and NOD-1/NOD-2-specific reporter cells in liquid handler-assisted assay formats as described previously. Example 6: Murine knockout cell-lines: The following reagents were obtained through BEI Resources, NIAID, NIH: the microglial cell line derived from MAL/MyD88 double knockout Mice (NR-9904), and the macrophage cell line derived from TRIF/TRAM knockout mice (NR-9568). Example 7: Human NOD1/2-specific reporter gene assays (NF-κB induction), and TLR-2/-3/-4/-5/-7/-8/-9/STING/ISG counter-screens: The induction of NF-κB was quantified using human TLR-2/-3/-4/-5/-7/-8/-9/NOD-1/NOD-2/STING/ISG-specific, rapid-throughput, liquid handler-assisted reporter gene assays as previously described by us (Wu, W. et al. J. Med. Chem. 2010, 53, 3198-3213; Shukla, N. M. et al. J. Med. Chem. 2010, 53, 4450-4465; Agnihotri, G. et al. J. Med. Chem. 2011, 54, 1490-1510 and Ukani, R. et al. Bioorg. Med. Chem. Lett. 2012, 22, 293-295). […]

SMILES | induction of chemokines and cytokines
CCCCCc1nc2ccccc2n1-c1csc(C(N)=O)c1 [Compound 7e, 4-(2-Pentyl-1H-benzo[d]imidazol-1-yl)thiophene-2-carboxamide] | None of the small molecules (including 1, as well as the optimized, equipotent analogues 7e and 7f) showed any activity; also recorded: absence of induction of chemokines and cytokines
CCCCCCc1nc2ccccc2n1-c1csc(C(N)=O)c1 [Compound 7f, 4-(2-Hexyl-1H-benzo[d]imidazol-1-yl)thiophene-2-carboxamide] | None of the small molecules (including 1, as well as the optimized, equipotent analogues 7e and 7f) showed any activity; also recorded: essentially identical to that of 7e
